We go through two molecules from patent US10023602B2, “Hamamelitannin analogues and uses thereof” (Universiteit Gent, priority 2014, dated 2018).

The test system of test [1] is methicillin resistant S. aureus Mu50 strain (S. aureus ATCC700699) biofilm. As to the kind of experiment: Biofilm susceptibility to vancomycin, pre-treatment regimen (biofilm formed in presence of compound, then vancomycin). The format is cell-based. Conditions: for Pretreat (100 μM): percentage Colony Forming Units (CFU's) per biofilm: compound 100 μM during biofilm formation, then VAN 20 μg/ml, compared to the untreated (negative) control. In outline:
(§1)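 Mu50 biofilms from 10^8 CFU/ml inoculum (4 h adhesion, then 20 h, 37 °C). Pre-treatment: compound (0.1-250 μM) present during biofilm formation, then vancomycin 20 μg/ml alone 24 h; combination: mature biofilm given vancomycin 20 μg/ml plus compound 24 h. Survivors counted by plating versus vancomycin alone.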

The test system is the same in test [2]. As to the kind of experiment: Biofilm susceptibility to vancomycin, combination treatment regimen (mature biofilm treated with compound plus vancomycin). To be noted: for Combin. (100 μM): percentage Colony Forming Units (CFU's) per biofilm: compound 100 μM together with VAN 20 μg/ml on mature biofilm, compared to the untreated (negative) control. Format: cell-based. In outline:
as §1

As to `O=C(NC[C@H]1OC[C@@](O)(CNC(=O)c2ccccc2)[C@@H]1O)c1cccc(C(F)(F)F)c1` [compound 166, N-(((2R,3R,4S)-4-(benzamidomethyl)-3,4-dihydroxytetrahydrofuran-2-yl)methyl)-3-(trifluoromethyl)benzamide], the “Pretreat (100 μM): percentage Colony Forming Units (CFU's) per biofilm” value in test [1] came to 10.16 percentage. The EC50 in test [1] (concentration needed to get 50% killing compared to antibiotic alone (VAN 20 μg/ml) and complete killing, read-out: Pretreat. (EC50)) was 9.13 µM; in test [2] (concentration needed to get 50% killing compared to antibiotic alone (VAN 20 μg/ml) and complete killing, read-out: Combin. (EC50)), 12.3 µM. Moreover, the “Combin. (100 μM): percentage Colony Forming Units (CFU's) per biofilm” value in test [2] is 12.34 percentage.
For the molecule `O=C(NC[C@]1(O)CO[C@H](CNC(=S)Nc2ccccc2)[C@H]1O)c1ccccc1` [compound 224, N-(((3S,4R,5R)-3,4-dihydroxy-5-((3-phenylthioureido)methyl)tetrahydrofuran-3-yl)methyl)benzamide], in test [1], the “Pretreat (100 μM): percentage Colony Forming Units (CFU's) per biofilm” value is 20.22 percentage. For the same molecule, the “Combin. (100 μM): percentage Colony Forming Units (CFU's) per biofilm” value in test [2] worked out at 27.33 percentage.
